This note sets out measurements from ChEMBL document CHEMBL1150618, “Isotactic polymethoxydienes from the Philippines sponge Myriastra clavosa” (J Nat Prod, 2002).

The subject of the assay is HCT-116. The assay is described as follows: Cytotoxicity against human HCT116 cells. Format: functional, cell-based.

What is called IC50 is the point on the concentration scale where inhibition reaches its midpoint. Read a high IC50 as a need for much substance. With `C=CC[C@@H](C[C@@H](C[C@@H](C[C@@H](C[C@@H](C[C@@H](C[C@@H](C[C@@H](C[C@H](OC)/C(C)=C/CCCCC)OC)OC)OC)OC)OC)OC)OC)OC`, the IC50 worked out at 86 µM.
The same measure for `C=CC[C@@H](C[C@@H](C[C@@H](C[C@@H](C[C@@H](C[C@@H](C[C@@H](C[C@@H](C[C@@H](C[C@H](OC)/C(C)=C/CCCCC)OC)OC)OC)OC)OC)OC)OC)OC)OC`: 75 µM; for `C=CC[C@@H](C[C@@H](C[C@@H](C[C@@H](C[C@@H](C[C@@H](C[C@H](OC)/C(C)=C/CCCCC)OC)OC)OC)OC)OC)OC`: 119 µM.
The same measure for `C=CC[C@@H](C[C@@H](C[C@@H](C[C@@H](C[C@@H](C[C@@H](C[C@@H](C[C@H](OC)/C(C)=C/CCCCC)OC)OC)OC)OC)OC)OC)OC`: 106 µM.
`C=CC[C@@H](C[C@@H](C[C@@H](C[C@@H](C[C@@H](C[C@@H](C[C@@H](C[C@@H](C[C@@H](C[C@@H](C[C@H](OC)/C(C)=C/CCCCC)OC)OC)OC)OC)OC)OC)OC)OC)OC)OC` returned a 50% inhibitory concentration (IC50) of 92 µM.
